Target: EmrD (Escherichia coli, UniProt P31442)
Experiment: fluorescence anisotropy titration with EmrD
Type: binding

Sequence of EmrD (P31442 whole entry): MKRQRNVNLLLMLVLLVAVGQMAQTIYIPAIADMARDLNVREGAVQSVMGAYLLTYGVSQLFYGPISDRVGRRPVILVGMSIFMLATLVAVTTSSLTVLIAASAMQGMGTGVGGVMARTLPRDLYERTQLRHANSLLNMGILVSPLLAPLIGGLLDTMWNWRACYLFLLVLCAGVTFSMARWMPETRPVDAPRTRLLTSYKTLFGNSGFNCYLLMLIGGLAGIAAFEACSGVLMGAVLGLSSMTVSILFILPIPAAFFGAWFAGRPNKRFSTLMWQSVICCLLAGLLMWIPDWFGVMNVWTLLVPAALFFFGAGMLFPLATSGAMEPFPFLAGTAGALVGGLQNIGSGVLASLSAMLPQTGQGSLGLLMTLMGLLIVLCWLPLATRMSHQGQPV

COc1cccc2c1C(=O)c1c(O)c3c(c(O)c1C2=O)C[C@@](O)(C(=O)CO)C[C@@H]3O[C@H]1C[C@H](N)[C@H](O)[C@H](C)O1 [doxorubicin]
Kd: ~7 µM

— publication PMC3855667 (Biochemistry, 2013)
